The values below come from patent US20260000689A1, “TARGETING CREB-HEPARAN SULFATE-FGF PATHWAY FOR CANCER TREATMENT” (UNIVERSITY OF SOUTH FLORIDA, priority 2022, published 2026).

The structures appear in SMILES notation. “Also recorded” adds a separate entry of the source.

Experiment [1] relates to Myc-CaP cells with EXT1-overexpression. Put plainly: s.c. xenograft prostate cancer mouse model, EXT1-overexpressing Myc-CaP cells. The format is in vivo, FVB/NJ mice. From the text:
(§1) FIG. 7A-FIG. 7F show inhibition of CREB or HS attenuates prostate cancer growth. […] 7A) and HS (FIG. 7B) in Myc-CaP cells, and the in vitro cell growth (FIG. 7C) and migration (FIG. 7D).
(§2) FIG. 22E and FIG. 22F show myc-Cap cells in vivo for KG-501 (FIG. 22E) and Surfen (FIG. 22F). FIG. 22G and FIG. 22H show Ext1-overexpressing myc-Cap cells in vivo for KG-501 (FIG. 22G) and Surfen (FIG. 22H).

Experiment [2] concerns Myc-CaP cells. The experiment can be described thus: Colony formation of EXT1-overexpressing vs EV MyC-CaP cells with FGFR inhibitor. The format is cell-based, mice. The settings on record: 1, 5, 10 μm AZD4547 vs DMSO.
Another experiment concerns EXT1 mRNA. The experiment can be described thus: Expression of EXT1 mRNA in Myc-CaP cells. The format is cell-based, mice.
Source text: as §1, §2

Another experiment deals with HS. Put plainly: Expression of HS (heparan sulfate staining) in Myc-CaP cells. Type of experiment: cell-based, mice.
Source text: as §1, §2

Experiment [3] concerns Myc-CaP cells. The experiment can be described thus: In vitro cell growth of Myc-CaP cells. The format is cell-based, mice.
Source text: as §1, §2

For experiment [4], the system named is Myc-CaP cells. Put plainly: Cell migration of Myc-CaP cells. Type of experiment: cell-based, mice.
Source text: as §1, §2

The subject of experiment [5] is Myc-CaP cells. Put plainly: s.c. xenograft prostate cancer mouse model, Myc-CaP cells. Type of experiment: in vivo, FVB/NJ mice. The settings on record: without EXT1-overexpression.
Source text: as §1, §2

For the molecule `COc1cc(CCc2cc(NC(=O)c3ccc(N4C[C@@H](C)N[C@@H](C)C4)cc3)n[nH]2)cc(OC)c1` [AZD4547], the “growth of EXT1-overexpressing Myc-CaP cells in s.c. xenograft prostate cancer mouse model” value in experiment [1] was “blocks EXT1-overexpression-enhanced prostate cancer growth in vivo”. In the experiment on Myc-CaP cells [2], the “resistance of EXT1-overexpressing cells to FGFR inhibitor in colony formation” value is given as “more resistant”.

For the molecule `O=C(Nc1ccc(Cl)cc1)c1cc2ccccc2cc1OP(=O)(O)O` [KG-501, 2-naphthol-AS-E-phosphate], in the experiment with EXT1 mRNA, the “expression of EXT1 mRNA” value is on record as “does-dependently inhibited”. In the experiment on HS, the “expression of HS” value was “does-dependently inhibited”. Besides, the “in vitro cell growth” value with Myc-CaP cells [3] is reported as “does-dependently inhibited”. Also, the migration entry with Myc-CaP cells [4] is “does-dependently inhibited”. The “growth of Myc-CaP cells in s.c. xenograft prostate cancer mouse model” value with Myc-CaP cells [5] was “efficiently inhibited; also recorded: attenuated prostate cancer growth in vivo”. Also, the “growth of EXT1-overexpressing Myc-CaP cells in s.c. xenograft prostate cancer mouse model” value in experiment [1] is “efficiently inhibited; also recorded: attenuated prostate cancer growth in vivo”.

Regarding `Cc1cc(N)c2cc(NC(=O)Nc3ccc4nc(C)cc(N)c4c3)ccc2n1` [Surfen, bis-2-methyl-4-amino-quinolyl-6-carbamide], the “growth of Myc-CaP cells in s.c. xenograft prostate cancer mouse model” value is “efficiently inhibited; also recorded: attenuated prostate cancer growth in vivo” in the experiment with Myc-CaP cells [5] and “blocked PCa growth” in the experiment on Myc-CaP cells [5] (listed as surfen). Moreover, the “growth of EXT1-overexpressing Myc-CaP cells in s.c. xenograft prostate cancer mouse model” value in experiment [1] is “efficiently inhibited; also recorded: attenuated prostate cancer growth in vivo”.
